The source of these data is patent US20040171624A1, “Pharmaceutical composition for treating mood disorders” (priority 2001, published 2004).

SMILES strings stand for the structures.

The test system of the data set is mouse. Format: in vivo. The following applies: oral administration at 5 g/kg weight. An excerpt: The theanine used in the present invention has high safety. […] Also, especially L-theanine is known as a main component of umami (tastiness) of the green tea, and is also used as a food additive giving umami, without the limitation of its added amount under the regulation for food hygiene. Moreover, contrary to the conventional drugs, since there is no side effect by theanine at all, the mood disorders can be safely and effectively treated, ameliorated or the like according to the composition of the present invention.

Turning to `CCNC(=O)CC[C@H](N)C(=O)O` [theanine], the cases of death entry is on record as “no cases of death”.
